# Assay results from patent publication US20090028795A1, “NOD1 as an Anti-Tumor Agent” (priority 2005, published 2009).
# Non-standard residues stand in square brackets, D forms with d. No end group written: not given here. DAP = diaminopimelic acid
# Experiments:
# Format in all cases: cell-based, human
# JNK = JNK phosphorylation in MCF-7 RIP2 transfectants
# Description: FIG. 7A-C illustrate that both wild-type RIP2 and a kinase-deficient (KD) mutant of RIP2 are functional in the NOD1 apoptosis pathway. However, RIP2 lacking the CARD domain acts as a dominant negative inhibitor of NOD1 signaling. FIG. 7A graphically illustrates the percentage of cells that were apoptotic in populations of wild type RIP2, RIP2 KD and RIP2 ΔCARD cells. MCF-7 cells were stably transfected with wild type Myc-RIP2, Myc-RIP2 KD, and Myc-RIP2 ΔCARD and were left untreated or were treated with γTriDAP in the presence or absence of CHX (3 ug/ml) for 48 h. Cells were incubated with PI and apoptotic cell death was measured by flow cytometry. […] FIG. 7C illustrates γTriDAP-induction of phosphorylation of JNK in RIP2 wild types, MCF-7 RIP2 KD, and RIP2 ΔCARD cells.
# The effect of RIP2 expression on γTriDAP-induced JNK phosphorylation was also examined (FIG. 7C).
# [1] = tested on: poly(ADP-ribose)polymerase (PARP) and capases 6, 7, 8 and 9; experiment: Western blot of PARP and caspase cleavage in MCF-7 cells; details: CHX 0.5 ug/ml, 24 h
# Protocol: Cleavage of PARP and various caspases was detected by Western blot analysis of cell MCF-7 Blasto, MCF-7 C20 and MCF-7 Nod1 after stimulation with γTriDAP, αTriDAP or medium (control) in the presence or absence of CHX (0.5 ug/ml) for 24 h. Cells were harvested, subjected to western blotting and PARP, caspases, p20, p41/43 and p35 were detected with antibodies reactive thereof.
# Western blot analysis and immunoprecipitation. Cells were washed extensively and lysed using lysis buffer containing 50 mM Hepes, 100 mM NaCl, 2 mM EDTA, 10% glycerol, 1% Nonidet P-40, 14 μM pepstatin A, 100 uM leupeptin, 3 mM benzamidine, 1 mM PMSF, 1 mM sodium pyrophosphate, 10 mM sodium orthovanadate, 100 U/ml aprotinin, and 100 mM sodium fluoride. After incubation for 30 min on ice, cell lysates were centrifuged (14000 rpm, 10 min, 4° C.) and the supernatants were recovered. For immunoprecipitation, cell lysates were mixed with 5 μg of antibody for 3 hour at 4° C. under constant agitation. Immune complexes were allowed to bind to 20 μl protein A-Sepharose beads overnight, beads were washed three times with lysis buffer. Immunoprecipitates were separated on SDS-PAGE and transferred to PVDF membranes.
# 293 [2] = experiment: IL-8 production, 293 cells stably expressing Nod1; details: 293, Nod1 stably expressed; treatment as labelled
# CaCo2 [3] = experiment: IL-8 production, CaCo2 cells stably expressing Nod1; details: CaCo2, Nod1 stably expressed; treatment as labelled
# CaCo2 [4] = experiment: Apoptosis (PI staining), CaCo2 cells stably expressing Nod1; details: CaCo2, Nod1 stably expressed; treatment as labelled
# Protocol: (§1) Cell viability assays. Propidium iodide exclusion assay: Cells were stimulated as indicated for 2 days. Subsequently, cells were harvested, washed twice in FACS buffer (PBS containing 1% FCS and 0.1% NaN3) and resuspended in propidium iodide (PI)-containing FACS buffer (4 ug/ml). The extent of cell death was analyzed with a FACSCalibur flow cytometer (Becton Dickinson, Mountain View, Calif.). DAPI staining: MCF-7 cells were plated in chamber slides, and stimulated for 2 days. Cells were washed with PBS and apoptotic nuclei were stained with 1 μg/ml DAPI (Sigma Chemical Co., St. Louis, Mo.). Cells were fixed in 4% paraformaldehyde and examined by fluorescence microscopy.
# (§2) To determine if Nod1-dependent apoptosis occurs in other human cell lines, a series of epithelial cell lines were examined where Nod1 was stably expressed to enhance sensitivity to activation of the Nod1 pathway. Cells were treated with TNFα (T) and γTriDAP (γ) in the presence or absence of CHX (C) and monitored for viability by PI staining as a measure of apoptosis (Table 1).
# MCF-7 C20 cells = experiment: Propidium iodide exclusion cell death assay, Nod1-deficient MCF-7 C20 cells; details: MCF-7C20 (without Nod1 expression), γTriDAP plus cycloheximide
# Protocol: as §1
# To further investigate the role of Nod1 in apoptosis, a variety of cell types were incubated with the Nod1 ligand, […] (γTriDAP), which specifically activates Nod1. The cell types tested included the parental MCF-7 cell line, the Nod1-deficient MCF-7C20 clone, and a cell line engineered to contain an additional human Nod1 allele (MCF-7Nod1) so that Nod1 was over-expressed. […] Cells were treated with γTriDAP in the presence or absence of cycloheximide (CHX) and cell death was then determined by propidium iodide staining and flow cytometry.
# 293 [5] = experiment: Apoptosis (PI staining), 293 cells stably expressing Nod1; details: 293, Nod1 stably expressed; treatment as labelled
# Protocol: as §1, §2
# MCF-7 C20/Nod1 cells = experiment: Propidium iodide exclusion apoptosis assay, estrogen/tamoxifen studies; details: γTriDAP-induced, C20/Nod1 cells
# Description: FIG. 12A-C illustrates that estrogen increases γTriDAP-induced apoptosis and tamoxifen inhibits γTriDAP-induced apoptosis in various MCF-7 tumor cell lines. FIG. 12A graphically illustrates the percent apoptosis in MCF-7 Blasto, MCF-7 C20 and MCF-7 C20/Nod1 cells cultured in increasing amounts or estrogen and either cycloheximide (CHX) or CHX plus γTriDAP (γTri). FIG. 12B graphically illustrates the percent apoptosis in MCF-7 Blasto, MCF-7 C20 and MCF-7 C20/Nod1 cells cultured in increasing amounts of tamoxifen and either cycloheximide (CHX) or CHX plus γTriDAP (γTri). For the estrogen studies, MCF-7 cells were cultured in charcoal-treated medium and stimulated with γTriDAP/CHX in the presence of increasing concentrations of estrogen (E2) and cell viability was measured by propidium iodide (PI) exclusion. For the tamoxifen studies, cells were treated with tamoxifen prior to addition of γTriDAP/CHX and cell viability measured by PI exclusion. […] Total protein extracts from MCF-7 Blasto, MCF-7 C20 and MCF-7 C20/Nod1 cells and from cells isolated from tumors were analyzed by immunoblotting using antibody against estrogen receptor (ERα), and ERK2 as loading control.
# as §1
# To determine whether the presence of estrogens modulates Nod1-induced apoptotic pathway, cells were cultured in medium containing charcoal-treated serum.
# HT29 = experiment: IL-8 production, HT29 cells stably expressing Nod1; details: HT29, Nod1 stably expressed; treatment as labelled
substance,measurement,setting,value
D-Ala-L-Glu-Diaminopimelic acid ([dA]-Glu-[DAP]; also: Glu joined to DAP through its gamma carboxyl (γTriDAP)),phosphorylation of JNK,"JNK; MCF-7 expressing wild type RIP2 or RIP2 KD, in the presence of cycloheximide, 2 h",induced phosphorylation of JNK
same,phosphorylation of JNK,"JNK; RIP2ΔCARD cells, with cycloheximide",no such effect
same,"proteolytic cleavage of PARP and capases 6, 7, 8 and 9",[1],resulted in proteolytic cleavage
same,IL−8 Production,293 [2],do release IL-8
same,IL−8 Production,CaCo2 [3],poorly responsive
same,apoptosis,CaCo2 [4],poorly responsive
same,apoptosis,MCF-7 C20 cells,totally resistant
same,apoptosis,293 [5],resistant
same,apoptosis,MCF-7 C20/Nod1 cells; with steroids,80%
same,apoptosis,MCF-7 C20/Nod1 cells; without steroids (charcoal-treated serum),10%
same,IL−8 Production,HT29,poorly responsive
